The text below walks through data of ChEMBL document CHEMBL5346977, “Discovery of Novel d-(+)-Biotin-Conjugated Resorcinol Dibenzyl Ether-Based PD-L1 Inhibitors for Targeted Cancer Immunotherapy” (J Med Chem, 2023).

Series [1] in a line: Drug concentration in kidney of C57BL/6 mouse implanted with mouse B16-F10 cells at 50 mg/kg, ip measured after 0.5 hrs by UPLC-MS/MS analysis. The note with it: read-out: Ct. The class given is ADME, organism-based.
A short description of series [2]: Toxicity in allogenic BALB/c mouse implanted with mouse B16-F10 cells assessed as inflammatory cell infiltration in colon at 50 mg/kg, ip by H&E staining based analysis. The class given is organism-based. Particulars: in vivo.
The nature of series [3]: Drug concentration in kidney of C57BL/6 mouse implanted with mouse B16-F10 cells at 50 mg/kg, ip measured after 4 hrs by UPLC-MS/MS analysis. Particulars: read-out: Ct. The class given is ADME, organism-based.
The subject of series [4] is B16-F10. The series can be described thus: Antitumor activity against mouse B16-F10 cells implanted in BALB/c mouse assessed as reduction in tumor volume at 50 mg/kg, ip administered once daily for 14 days relative to control. The series is classed as functional. On the set-up: scale not given: the % may be the effect or the level left. Particulars: time 14 day.
Series [5] relates to B16-F10. The series can be described thus: Antitumor activity against mouse B16-F10 cells implanted in allogenic BALB/c mouse assessed as decrease in PD-L1 protein level at 50 mg/kg, ip by flow cytometric analysis. The class given is functional, organism-based.
Series [6] concerns B16-F10. The series is described as follows: Antitumor immunity against mouse B16-F10 cells implanted in allogenic BALB/c mouse assessed as increase in CD3+ CD8+ T cells percentage at 50 mg/kg, ip by flow cytometric analysis. The class given is functional, organism-based.
Series [7] is described as follows: Cmax in Sprague-Dawley rat at 20 mg/kg, po measured after 48 hrs by HPLC-MS/MS analysis. The class given is ADME, organism-based. Further details: dose 20 mg/kg, time 48 hrs, route po. Particulars: in vivo.
The nature of series [8]: Cmax in C57BL/6 mouse at 50 mg/kg, ip measured after 4 hrs by HPLC-MS/MS analysis. Particulars: in vivo. The series is classed as ADME, organism-based. On the set-up: dose 50 mg/kg, time 4 hrs, route ip.
Series [9] can be described thus: Drug concentration in lung of C57BL/6 mouse implanted with mouse B16-F10 cells at 50 mg/kg, ip measured after 0.5 hrs by UPLC-MS/MS analysis. The series is classed as ADME, organism-based. Particulars: read-out: Ct.
Series [10] can be described thus: Drug concentration in lung of C57BL/6 mouse implanted with mouse B16-F10 cells at 50 mg/kg, ip measured after 1 hrs by UPLC-MS/MS analysis. Particulars: read-out: Ct. The series is classed as ADME, organism-based.
A short description of series [11]: MRT (0 to t) in Sprague-Dawley rat at 20 mg/kg, po measured after 48 hrs by HPLC-MS/MS analysis. The series is classed as ADME, organism-based. Particulars: in vivo.
A short description of series [12]: Drug concentration in tumor of C57BL/6 mouse implanted with mouse B16-F10 cells at 50 mg/kg, ip measured after 0.5 hrs by UPLC-MS/MS analysis. The class given is ADME, organism-based, Neoplasm. Particulars: read-out: Ct.
The nature of series [13]: MRT (0 to infinity) in C57BL/6 mouse at 50 mg/kg, ip measured after 4 hrs by HPLC-MS/MS analysis. The class given is ADME, organism-based. Particulars: in vivo.
Series [14] is described as follows: Drug concentration in plasma of C57BL/6 mouse implanted with mouse B16-F10 cells at 50 mg/kg, ip measured after 1 hrs by UPLC-MS/MS analysis. The series is classed as ADME, organism-based.

Active and inactive are the calls of the source. The calls are words filed in the database; no cut-off is given here.

`Cc1c(COc2cc(OCc3cccc(C#N)c3)c(CN3CCCCC3C(=O)NCCNC(=O)CCCC[C@@H]3SC[C@@H]4NC(=O)N[C@@H]43)cc2Cl)cccc1-c1ccccc1` (some centres undefined): the figures for the concentration at 0.5 h in series [1], in series [9] and in series [12] were 134 ng/mL, 285 ng/mL and 15.5 ng/mL, respectively. Moreover, the Activity entry in series [2] is “Non-Toxic”; with B16-F10 [4], 76.5%. Moreover, in [3], the concentration at 4 h worked out at 380 ng/mL. Further, the result in the series with B16-F10 [5] and in the series on B16-F10 [6] was Active. The highest concentration (Cmax) came out at 177 ng/mL in [7] and 1540 ng/mL in series [8]. The concentration at 1 h in series [10] is 193 ng/mL; in series [14] it was 1460 ng/mL. In addition, in series [11], the MRT last at 48 h worked out at 6.9 h. Also, the MRT inf in [13] was 9.84 h.
